In patent US7504362B2, “Pesticidal compositions” (Merial Limited, priority 2002, dated 2009):

Tested on: Ctenocephalides felis, Diabrotica undecimpunctata, Nephotettix cincticeps or Rhipicephalus sanguineus
Assay: Pooled statement: active in one or more of the above tests (Methods A to E)
Assay type: in vivo
Conditions: active = reaching the threshold of Method A, B, C, D or E; test not given per compound
Procedure: The following representative test procedures, using compounds of the invention, were conducted to determine the parasiticidal and pesticidal activity of compounds of the invention.
A test container was filled with 10 adults of Ctenocephalides felis. A glass cylinder was closed on one end with parafilm and placed on top of the test container. The test compound solution was then pipetted into bovine blood and added to the glass cylinder. The treated Ctenocephalides felis were held in this artificial dog test (blood 37° C., 40-60% relative humidity; Ctenocephalides felis 20-22° C., 40-60% relative humidity) and assessment performed at 24 and 48 hours after application. Active compounds gave at least 90% control of Ctenocephalides felis at a test concentration of 5 ppm or less.
Two days before application, seeds of maize were soaked in water under warm conditions to elicit fast germination. One day before application, eggs of Diabrotica undecimpunctata were transferred to one half of a Japanese filter paper placed in a plastic petri dish. Afterwards, a sprouted maize seed was placed on a moistened pad beside the filter paper. Three drops of 200 microliters of test compound solution were carefully pipetted onto the egg. The remainder of the solution was placed on the maize and then the Petri dish was closed. The treated eggs in the Petri dishes were held in a climate chamber for 6 days. The compound efficacy (percentage of dead eggs and/or larvae in comparison to untreated control) was assessed 6 days after application using a binocular microscope.
Active compounds gave at least 90% control of Diabrotica undecimpunctata at a test concentration of 10 ppm.
The leaves of 12 rice plants having a stem length of 8 cm were dipped for 5 seconds into an aqueous solution of the formulated test compound. After the solution had run off, the rice plants treated in this manner were placed in a Petri dish and populated with about 20 larvae (L3 stage) of Nephotettix cincticeps. The Petri dish was closed and then stored in a climate chamber (16 hours of light/day, 25° C., 40-60% relative humidity). After 6 days storage, the percentage mortality of leafhopper larvae was determined.
Active compounds gave at least 98% mortality of Nephotettix cinciceps larvae at a test concentration of 100 ppm.
Solutions of the test compounds were dropped onto filter paper, dried and the filter paper placed into test tubes and infested with 10 adults of Ctenocephalides felis. The treated Ctenocephalides felis were held in a climate chamber (26° C., 80% RH) and the percentage efficacy assessed 24 hours and 48 hours after application in comparison with the untreated control.
Active compounds gave at least 70% contact control of Ctenocephalides felis at a test concentration of 1000 ppm.
Solutions of the test compounds were dropped onto filter paper, dried and the filter paper placed into test tubes and infested with 20-30 larvae (L1) of Rhipicephalus sanguineus and the tubes closed with a clip. The treated Rhipicephalus sanguineus were held in a climate chamber (25° C., 90% RH) and the percentage efficacy assessed 24 hours after application in comparison with the untreated control. Active compounds gave at least 70% contact control of Rhipicephalus sanguineus at a test concentration of 100 ppm.

SMILES | active in one or more of the above tests
CCCCS(=O)(=O)N(C)c1c([S+]([O-])C(F)(F)F)c(C#N)nn1-c1c(Cl)cc(C(F)(F)F)cc1Cl (stereo not drawn) [Compound 1-87] | active
CN(c1c(SC(F)(F)F)c(C#N)nn1-c1c(Cl)cc(C(F)(F)F)cc1Cl)S(=O)(=O)c1cccc(C(F)(F)F)c1 [Compound 5-15] | active
CN(c1c(S(=O)(=O)C(F)(F)F)c(C#N)nn1-c1c(Cl)cc(C(F)(F)F)cc1Cl)S(=O)(=O)Cc1ccc(C(F)(F)F)cc1 [Compound 2-128] | active
CN(c1c([S+]([O-])C(F)(F)F)c(C#N)nn1-c1c(Cl)cc(C(F)(F)F)cc1Cl)S(=O)(=O)Cc1cccc(C(F)(F)F)c1 (stereo not drawn) [Compound 2-92] | active
CCCCCCCCCS(=O)(=O)N(C)c1c([S+]([O-])C(F)(F)F)c(C#N)nn1-c1c(Cl)cc(C(F)(F)F)cc1Cl (stereo not drawn) [Compound 1-94] | active
CCCCCCCCCCCCS(=O)(=O)N(C)c1c([S+]([O-])C(F)(F)F)c(C#N)nn1-c1c(Cl)cc(C(F)(F)F)cc1Cl (stereo not drawn) [Compound 1-126] | active
CCS(=O)(=O)N(C)c1c(S(=O)(=O)C(F)(F)F)c(C#N)nn1-c1c(Cl)cc(C(F)(F)F)cc1Cl [Compound 1-72] | active
CN(c1c([S+]([O-])C(F)(F)F)c(C#N)nn1-c1c(Cl)cc(C(F)(F)F)cc1Cl)S(=O)(=O)c1cccc(C(F)(F)F)c1 (stereo not drawn) [Compound 5-60] | active
Cc1ccc(S(=O)(=O)N(C)c2c(SC(F)(F)F)c(C#N)nn2-c2c(Cl)cc(C(F)(F)F)cc2Cl)cc1 [Compound 5-32] | active
CCCCCCCCS(=O)(=O)N(C)c1c([S+]([O-])C(F)(F)F)c(C#N)nn1-c1c(Cl)cc(C(F)(F)F)cc1Cl (stereo not drawn) [Compound 1-93] | active
CN(c1c(SC(F)(F)F)c(C#N)nn1-c1c(Cl)cc(C(F)(F)F)cc1Cl)S(=O)(=O)c1ccc(C(F)(F)F)cc1 [Compound 5-16] | active
CN(c1c([S+]([O-])C(F)(F)F)c(C#N)nn1-c1c(Cl)cc(C(F)(F)F)cc1Cl)S(=O)(=O)c1ccc(C(C)(C)C)cc1 (stereo not drawn) [Compound 5-83] | active
CN(c1c(SC(F)(F)F)c(C#N)nn1-c1c(Cl)cc(C(F)(F)F)cc1Cl)S(=O)(=O)c1ccccc1Cl [Compound 5-1] | active
CN(c1c(S(=O)(=O)C(F)(F)F)c(C#N)nn1-c1c(Cl)cc(C(F)(F)F)cc1Cl)S(=O)(=O)Cc1ccc(Cl)cc1 [Compound 2-115] | active
CN(c1c(S(=O)(=O)C(F)(F)F)c(C#N)nn1-c1c(Cl)cc(C(F)(F)F)cc1Cl)S(=O)(=O)Cc1cc(Cl)cc(Cl)c1 [Compound 2-151] | active
CN(c1c([S+]([O-])C(F)(F)F)c(C#N)nn1-c1c(Cl)cc(C(F)(F)F)cc1Cl)S(=O)(=O)c1ccc(Cl)cc1 (stereo not drawn) [Compound 5-48] | active
CN(c1c([S+]([O-])C(F)(F)F)c(C(N)=S)nn1-c1c(Cl)cc(C(F)(F)F)cc1Cl)S(=O)(=O)Cc1ccccc1 (stereo not drawn) [Compound 7-32] | active
CN(c1c([S+]([O-])C(F)(F)F)c(C#N)nn1-c1c(Cl)cc(C(F)(F)F)cc1Cl)S(=O)(=O)C(Cl)Cl (stereo not drawn) [Compound 1-119] | active
CN(c1c([S+]([O-])C(F)(F)F)c(C#N)nn1-c1c(Cl)cc(C(F)(F)F)cc1Cl)S(=O)(=O)c1ccccc1Cl (stereo not drawn) [Compound 5-46] | active
CN(c1c([S+]([O-])C(F)(F)F)c(C#N)nn1-c1c(Cl)cc(C(F)(F)F)cc1Cl)S(=O)(=O)C=Cc1ccccc1 (stereo not drawn) [Compound 1-114] | active

SMILES | active in one or more of the above tests
CC(C)S(=O)(=O)N(C)c1c(SC(F)(F)F)c(C#N)nn1-c1c(Cl)cc(C(F)(F)F)cc1Cl [Compound 1-122] | active
CN(c1c(S(=O)(=O)C(F)(F)F)c(C#N)nn1-c1c(Cl)cc(C(F)(F)F)cc1Cl)S(=O)(=O)Cc1cc(C(F)(F)F)cc(C(F)(F)F)c1 [Compound 2-129] | active
CN(c1c([S+]([O-])C(F)(F)F)c(C#N)nn1-c1c(Cl)cc(C(F)(F)F)cc1Cl)S(=O)(=O)c1cccc(Cl)c1 (stereo not drawn) [Compound 5-47] | active
CN(c1c(S(=O)(=O)C(F)(F)F)c(C#N)nn1-c1c(Cl)cc(C(F)(F)F)cc1Cl)S(=O)(=O)Cc1ccccc1 [Compound 2-30] | active
CCCCCCCCCCCCS(=O)(=O)N(C)c1c([S+]([O-])C(F)(F)F)c(C#N)nn1-c1c(Cl)cc(C(F)(F)F)cc1Cl (stereo not drawn) [Compound 1-96] | active
CCS(=O)(=O)N(C)c1c(SC(F)(F)F)c(C#N)nn1-c1c(Cl)cc(C(F)(F)F)cc1Cl [Compound 1-44] | active
CN(c1c(SC(F)(F)F)c(C#N)nn1-c1c(Cl)cc(C(F)(F)F)cc1Cl)S(=O)(=O)Cc1ccc(Cl)c(Cl)c1 [Compound 2-48] | active
CN(c1c(SC(F)(F)F)c(C#N)nn1-c1c(Cl)cc(C(F)(F)F)cc1Cl)S(=O)(=O)Cc1cccs1 [Compound 4-33] | active
CN(c1c([S+]([O-])C(F)(F)F)c(C#N)nn1-c1c(Cl)cc(C(F)(F)F)cc1Cl)S(=O)(=O)c1ccc([N+](=O)[O-])cc1 (stereo not drawn) [Compound 5-88] | active
COc1ccc(S(=O)(=O)N(C)c2c(SC(F)(F)F)c(C#N)nn2-c2c(Cl)cc(C(F)(F)F)cc2Cl)cc1 [Compound 5-22] | active
CN(c1c([S+]([O-])C(F)(F)F)c(C#N)nn1-c1c(Cl)cc(C(F)(F)F)cc1Cl)S(=O)(=O)c1ccc(-c2ccc(F)cc2)cc1 (stereo not drawn) [Compound 5-151] | active
CN(c1c([S+]([O-])C(F)(F)F)c(C#N)nn1-c1c(Cl)cc(C(F)(F)F)cc1Cl)S(=O)(=O)Cc1ccccc1 (stereo not drawn) [Compound 2-16, 1-(2,6-Dichloro-4-trifluoromethylphenyl)-3-cyano-5-(N-benzylsulfonyl-N-methylamino)-4-trifluoromethylsulfinylpyrazole] | active
CN(c1c(SC(F)(F)F)c(C#N)nn1-c1c(Cl)cc(C(F)(F)F)cc1Cl)S(=O)(=O)Cc1cccc(C(F)(F)F)c1 [Compound 2-57] | active
CS(=O)(=O)Nc1c(SC(F)(F)F)c(C#N)nn1-c1c(Cl)cc(C(F)(F)F)cc1Cl [Compound 1-1] | active
CN(c1c(SC(F)(F)F)c(C#N)nn1-c1c(Cl)cc(C(F)(F)F)cc1Cl)S(=O)(=O)Cc1ccc(C(F)(F)F)cc1 [Compound 2-58] | active
CN(c1c([S+]([O-])C(F)(F)F)c(C#N)nn1-c1c(Cl)cc(C(F)(F)F)cc1Cl)S(=O)(=O)Cc1ccc(F)cc1 (stereo not drawn) [Compound 2-86] | active
CC(C)S(=O)(=O)N(C)c1c([S+]([O-])C(F)(F)F)c(C#N)nn1-c1c(Cl)cc(C(F)(F)F)cc1Cl (stereo not drawn) [Compound 1-85] | active
CN(c1c(SC(F)(F)F)c(C#N)nn1-c1c(Cl)cc(C(F)(F)F)cc1Cl)S(C)(=O)=O [Compound 1-2] | active
CN(c1c([S+]([O-])C(F)(F)F)c(C#N)nn1-c1c(Cl)cc(C(F)(F)F)cc1Cl)S(=O)(=O)c1ccccc1 (stereo not drawn) [Compound 5-81] | active
